Experimental data: PubChem BioAssay AID248 (DTP/NCI, 2004)
Where “and” joins values, the source holds several entries; their conditions need not be identical. Equal values may be shown once. Inconclusive results and toxic doses are left out.

System: L1210 leukemia ip in BDF1 mice, survival T/C
Assay: NCI In Vivo Anticancer Drug Screen. Data for tumor model L1210 Leukemia (intraperitoneal) in B6D2F1 (BDF1) mice
Details: higher = longer survival
In short: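 Survival endpoint. Drug-treated group vs vehicle group, expressed as T divided by C. Tumor passaged by transplantation.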

[1] = endpoint: mean survival time, dose: 100.0 mg/kg/injection, schedule: Q01DX001 (ip), vehicle: saline
[2] = endpoint: mean survival time, dose: 200.0 mg/kg/injection, schedule: Q01DX001 (ip), vehicle: saline

With `N/C(=N\O)c1cn(C2OC(CO)C(O)C2O)c2ncnc(N)c12` (centres undefined) the T/C (endpoint: mean survival time, dose: 0.2 mg/kg/injection, schedule: Q01DX015 (ip), vehicle: carboxymethylcellulose (CMC)) was 104 % of control, the T/C (endpoint: mean survival time, dose: 0.25 mg/kg/injection, schedule: Q01DX009 (ip), vehicle: saline) was 117 % of control and the T/C (endpoint: mean survival time, dose: 0.25 mg/kg/injection, schedule: Q03HX024 (ip), vehicle: saline) was 123 % of control. The T/C (endpoint: mean survival time, dose: 0.3 mg/kg/injection, schedule: Q01DX015 (ip), vehicle: carboxymethylcellulose (CMC)) was 117 % of control, the T/C (endpoint: mean survival time, dose: 0.39 mg/kg/injection, schedule: Q01DX009 (ip), vehicle: saline) was 150 % of control and the T/C (endpoint: mean survival time, dose: 0.44 mg/kg/injection, schedule: Q01DX015 (ip), vehicle: carboxymethylcellulose (CMC)) was 117 % of control. For the same compound, the T/C (endpoint: mean survival time, dose: 0.5 mg/kg/injection, schedule: Q01DX005 (ip), vehicle: saline) was 118 % of control, the T/C (endpoint: mean survival time, dose: 0.67 mg/kg/injection, schedule: Q01DX015 (ip), vehicle: carboxymethylcellulose (CMC)) was 120 % of control and the T/C (endpoint: mean survival time, dose: 0.78 mg/kg/injection, schedule: Q01DX005 (ip), vehicle: saline) was 111 % of control. For the same compound, the T/C (endpoint: mean survival time, dose: 0.78 mg/kg/injection, schedule: Q01DX009 (ip), vehicle: saline) was 150 % of control, the T/C (endpoint: mean survival time, dose: 1.0 mg/kg/injection, schedule: Q03HX008 (ip), vehicle: saline) was 160 % of control and the T/C (endpoint: mean survival time, dose: 1.0 mg/kg/injection, schedule: Q03HX024 (ip), vehicle: saline) was 192 % of control. For the same compound, the T/C (endpoint: mean survival time, dose: 1.3 mg/kg/injection, schedule: Q01DX009 (ip), vehicle: saline) was 159 % of control, the T/C (endpoint: mean survival time, dose: 1.56 mg/kg/injection, schedule: Q01DX005 (ip), vehicle: saline) was 110 % of control and the T/C (endpoint: mean survival time, dose: 1.56 mg/kg/injection, schedule: Q01DX009 (ip), vehicle: saline) was 204 % of control. For the same compound, the T/C (endpoint: mean survival time, dose: 2.0 mg/kg/injection, schedule: Q01DX009 (ip), vehicle: saline) was 158 % of control, the T/C (endpoint: mean survival time, dose: 2.0 mg/kg/injection, schedule: Q03HX024 (ip), vehicle: saline) was 102 % of control and 107 % of control and the T/C (endpoint: mean survival time, dose: 3.0 mg/kg/injection, schedule: Q01DX009 (ip), vehicle: saline) was 151 % of control. For the same compound, the T/C (endpoint: mean survival time, dose: 3.12 mg/kg/injection, schedule: Q01DX001 (ip), vehicle: other) was 121 % of control, the T/C (endpoint: mean survival time, dose: 3.12 mg/kg/injection, schedule: Q01DX005 (ip), vehicle: saline) was 156 % of control and the T/C (endpoint: mean survival time, dose: 3.12 mg/kg/injection, schedule: Q01DX009 (ip), vehicle: saline) was 109 % of control. For the same compound, the T/C (endpoint: mean survival time, dose: 3.13 mg/kg/injection, schedule: Q01DX001 (ip), vehicle: water) was 121 % of control, the T/C (endpoint: mean survival time, dose: 4.0 mg/kg/injection, schedule: Q01DX001 (ip), vehicle: saline) was 117 % of control and the T/C (endpoint: mean survival time, dose: 4.0 mg/kg/injection, schedule: Q01DX005 (ip), vehicle: saline) was 152 % of control. The T/C (endpoint: mean survival time, dose: 4.0 mg/kg/injection, schedule: Q01DX009 (ip), vehicle: saline) was 153 % of control and 180 % of control, the T/C (endpoint: mean survival time, dose: 4.0 mg/kg/injection, schedule: Q01DX009 (oral), vehicle: saline) was 96 % of control and the T/C (endpoint: mean survival time, dose: 4.0 mg/kg/injection, schedule: Q08DX002 (ip), vehicle: saline) was 122 % of control. The T/C (endpoint: mean survival time, dose: 4.4 mg/kg/injection, schedule: Q01DX001 (ip), vehicle: carboxymethylcellulose (CMC)) was 124 % of control, the T/C (endpoint: mean survival time, dose: 5.0 mg/kg/injection, schedule: Q01DX001 (ip), vehicle: carboxymethylcellulose (CMC)) was 124 % of control and the T/C (endpoint: mean survival time, dose: 5.0 mg/kg/injection, schedule: Q01DX009 (ip), vehicle: saline) was 158 % of control. The T/C (endpoint: mean survival time, dose: 5.0 mg/kg/injection, schedule: Q01DX015 (ip), vehicle: carboxymethylcellulose (CMC)) was 108 % of control, the T/C (endpoint: mean survival time, dose: 6.25 mg/kg/injection, schedule: Q01DX001 (ip), vehicle: other) was 122 % of control and the T/C (endpoint: mean survival time, dose: 6.25 mg/kg/injection, schedule: Q01DX001 (ip), vehicle: water) was 114 % of control. For the same compound, the T/C (endpoint: mean survival time, dose: 6.25 mg/kg/injection, schedule: Q01DX009 (ip), vehicle: saline) was 113 % of control, the T/C (endpoint: mean survival time, dose: 8.0 mg/kg/injection, schedule: Q01DX001 (ip), vehicle: saline) was 124 % of control and the T/C (endpoint: mean survival time, dose: 8.0 mg/kg/injection, schedule: Q01DX005 (ip), vehicle: saline) was 150 % of control. For the same compound, the T/C (endpoint: mean survival time, dose: 8.0 mg/kg/injection, schedule: Q01DX009 (ip), vehicle: saline) was 119 % of control and 121 % of control, the T/C (endpoint: mean survival time, dose: 8.0 mg/kg/injection, schedule: Q01DX009 (oral), vehicle: saline) was 95 % of control and the T/C (endpoint: mean survival time, dose: 8.0 mg/kg/injection, schedule: Q04DX003 (ip), vehicle: saline) was 151 % of control and 156 % of control. For the same compound, the T/C (endpoint: mean survival time, dose: 16.0 mg/kg/injection, schedule: Q01DX001 (ip), vehicle: saline) was 119 % of control, the T/C (endpoint: mean survival time, dose: 16.0 mg/kg/injection, schedule: Q01DX001 (oral), vehicle: saline) was 94 % of control and the T/C (endpoint: mean survival time, dose: 16.0 mg/kg/injection, schedule: Q01DX009 (oral), vehicle: saline) was 95 % of control. For the same compound, the T/C (endpoint: mean survival time, dose: 16.0 mg/kg/injection, schedule: Q04DX003 (ip), vehicle: saline) was 186 % of control, the T/C (endpoint: mean survival time, dose: 22.5 mg/kg/injection, schedule: Q01DX001 (ip), vehicle: saline) was 151 % of control and the T/C (endpoint: mean survival time, dose: 25.0 mg/kg/injection, schedule: Q01DX001 (ip), vehicle: other) was 157 % of control. For the same compound, the T/C (endpoint: mean survival time, dose: 25.0 mg/kg/injection, schedule: Q01DX001 (ip), vehicle: water) was 152 % of control, the T/C (endpoint: mean survival time, dose: 32.0 mg/kg/injection, schedule: Q01DX001 (oral), vehicle: saline) was 97 % of control and the T/C (endpoint: mean survival time, dose: 32.0 mg/kg/injection, schedule: Q01DX009 (oral), vehicle: saline) was 94 % of control. For the same compound, the T/C (endpoint: mean survival time, dose: 32.0 mg/kg/injection, schedule: Q08DX002 (ip), vehicle: saline) was 154 % of control, the T/C (endpoint: mean survival time, dose: 50.0 mg/kg/injection, schedule: Q01DX001 (ip), vehicle: other) was 150 % of control and the T/C (endpoint: mean survival time, dose: 50.0 mg/kg/injection, schedule: Q01DX001 (ip), vehicle: water) was 159 % of control. The T/C (endpoint: mean survival time, dose: 64.0 mg/kg/injection, schedule: Q01DX001 (oral), vehicle: saline) was 94 % of control, the T/C (endpoint: mean survival time, dose: 128.0 mg/kg/injection, schedule: Q01DX001 (oral), vehicle: saline) was 90 % of control and the T/C (endpoint: median survival time, dose: 0.5 mg/kg/injection, schedule: Q01DX009 (ip), vehicle: saline) was 118 % of control and 122 % of control. For the same compound, the T/C (endpoint: median survival time, dose: 1.0 mg/kg/injection, schedule: Q01DX009 (ip), vehicle: saline) was 122 % of control.
`COC(=O)c1ccc(N(C)CC2=Nc3c(nc(N)nc3SCc3ccccc3)NC2)cc1` was tested, and the T/C (endpoint: mean survival time, dose: 100.0 mg/kg/injection, schedule: Q01DX001 (ip), vehicle: saline with Tween-80) was 97 % of control, the T/C (endpoint: mean survival time, dose: 200.0 mg/kg/injection, schedule: Q01DX001 (ip), vehicle: saline with Tween-80) was 108 % of control and the T/C (endpoint: mean survival time, dose: 400.0 mg/kg/injection, schedule: Q01DX001 (ip), vehicle: saline with Tween-80) was 101 % of control.
For `CCOC(OCC)c1nc(N)nc(N)c1-c1ccc(Cl)c(Cl)c1`, the T/C (endpoint: mean survival time, dose: 11.0 mg/kg/injection, schedule: Q01DX009 (ip), vehicle: other) was 98 % of control, the T/C (endpoint: mean survival time, dose: 22.5 mg/kg/injection, schedule: Q01DX009 (ip), vehicle: other) was 101 % of control and the T/C (endpoint: mean survival time, dose: 45.0 mg/kg/injection, schedule: Q01DX009 (ip), vehicle: other) was 101 % of control. For the same compound, the T/C (endpoint: mean survival time, dose: 89.0 mg/kg/injection, schedule: Q01DX009 (ip), vehicle: saline) was 102 % of control, the T/C (endpoint: mean survival time, dose: 90.0 mg/kg/injection, schedule: Q01DX009 (ip), vehicle: other) was 115 % of control and the T/C [1] was 100 % of control. The T/C (endpoint: mean survival time, dose: 134.0 mg/kg/injection, schedule: Q01DX009 (ip), vehicle: saline) was 119 % of control, the T/C [2] was 107 % of control and the T/C (endpoint: mean survival time, dose: 300.0 mg/kg/injection, schedule: Q01DX009 (ip), vehicle: saline) was 101 % of control.
`C1N2CN3CN1CN(C2)C3` was tested, and the T/C (endpoint: mean survival time, dose: 50.0 mg/kg/injection, schedule: Q01DX001 (ip), vehicle: carboxymethylcellulose (CMC)) was 104 % of control, the T/C (endpoint: mean survival time, dose: 100.0 mg/kg/injection, schedule: Q01DX001 (ip), vehicle: carboxymethylcellulose (CMC)) was 104 % of control and the T/C (endpoint: mean survival time, dose: 100.0 mg/kg/injection, schedule: Q04DX002 (ip), vehicle: saline) was 100 % of control. The T/C (endpoint: mean survival time, dose: 200.0 mg/kg/injection, schedule: Q01DX001 (ip), vehicle: carboxymethylcellulose (CMC)) was 112 % of control, the T/C (endpoint: mean survival time, dose: 200.0 mg/kg/injection, schedule: Q04DX002 (ip), vehicle: saline) was 100 % of control and the T/C (endpoint: mean survival time, dose: 400.0 mg/kg/injection, schedule: Q01DX001 (ip), vehicle: carboxymethylcellulose (CMC)) was 101 % of control. The T/C (endpoint: mean survival time, dose: 400.0 mg/kg/injection, schedule: Q04DX002 (ip), vehicle: saline) was 114 % of control.
With `O=C1CCCC2C(=O)CCCC12` (centres undefined) the T/C (endpoint: mean survival time, dose: 100.0 mg/kg/injection, schedule: Q## X003 (ip), vehicle: saline) was 102 % of control, the T/C (endpoint: mean survival time, dose: 200.0 mg/kg/injection, schedule: Q## X003 (ip), vehicle: saline) was 98 % of control and the T/C (endpoint: mean survival time, dose: 400.0 mg/kg/injection, schedule: Q## X003 (ip), vehicle: saline) was 101 % of control.
For `O=C(O)c1cocc1C(=O)O`, the T/C (endpoint: mean survival time, dose: 100.0 mg/kg/injection, schedule: Q04DX002 (ip), vehicle: Klucel (hydroxypropylcellulose) (HPC)) was 91 % of control and the T/C (endpoint: mean survival time, dose: 200.0 mg/kg/injection, schedule: Q04DX002 (ip), vehicle: Klucel (hydroxypropylcellulose) (HPC)) was 91 % of control.
For `ClB(Cl)c1ccccc1`, the T/C [1] was 92 % of control, the T/C [2] was 92 % of control and the T/C (endpoint: mean survival time, dose: 400.0 mg/kg/injection, schedule: Q01DX001 (ip), vehicle: saline) was 101 % of control.
`CC(=O)Nc1ccccc1.[Hg]` was tested, and the T/C (endpoint: mean survival time, dose: 1.56 mg/kg/injection, schedule: Q01DX009 (ip), vehicle: saline with Tween-80) was 90 % of control and the T/C (endpoint: mean survival time, dose: 3.13 mg/kg/injection, schedule: Q01DX009 (ip), vehicle: saline with Tween-80) was 88 % of control.
